Four compounds from ChEMBL document CHEMBL4610064, “DNA-Encoded Library Screening as Core Platform Technology in Drug Discovery: Its Synthetic Method Development and Applications in DEL Synthesis” (J Med Chem, 2020) can be followed below.

≈ marks a conversion by molar mass, not a printed value.

The nature of data set [1]: Aqueous solubility of the compound. In kind it is physicochemical. To be noted: water.
Data set [2] deals with Substance-P receptor (Homo sapiens) (UniProt P25103). Nature of the data set: Antagonist activity at NK1 (unknown origin).
Substance-P receptor (Homo sapiens), sequence (P25103 whole entry): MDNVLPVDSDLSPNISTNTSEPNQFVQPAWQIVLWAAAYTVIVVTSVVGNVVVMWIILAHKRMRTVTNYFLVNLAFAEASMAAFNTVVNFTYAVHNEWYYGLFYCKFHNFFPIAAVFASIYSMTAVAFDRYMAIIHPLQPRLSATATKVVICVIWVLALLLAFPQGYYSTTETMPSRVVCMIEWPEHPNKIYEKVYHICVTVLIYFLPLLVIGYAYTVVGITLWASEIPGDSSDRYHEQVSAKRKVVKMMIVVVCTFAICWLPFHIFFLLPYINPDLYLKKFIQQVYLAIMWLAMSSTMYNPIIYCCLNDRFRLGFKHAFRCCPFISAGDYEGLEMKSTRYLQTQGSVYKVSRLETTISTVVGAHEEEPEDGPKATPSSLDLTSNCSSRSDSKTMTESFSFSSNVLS
Data set [3] concerns the target T1, Substance-K receptor (Homo sapiens) (UniProt P21452).
T1 sequence (whole entry): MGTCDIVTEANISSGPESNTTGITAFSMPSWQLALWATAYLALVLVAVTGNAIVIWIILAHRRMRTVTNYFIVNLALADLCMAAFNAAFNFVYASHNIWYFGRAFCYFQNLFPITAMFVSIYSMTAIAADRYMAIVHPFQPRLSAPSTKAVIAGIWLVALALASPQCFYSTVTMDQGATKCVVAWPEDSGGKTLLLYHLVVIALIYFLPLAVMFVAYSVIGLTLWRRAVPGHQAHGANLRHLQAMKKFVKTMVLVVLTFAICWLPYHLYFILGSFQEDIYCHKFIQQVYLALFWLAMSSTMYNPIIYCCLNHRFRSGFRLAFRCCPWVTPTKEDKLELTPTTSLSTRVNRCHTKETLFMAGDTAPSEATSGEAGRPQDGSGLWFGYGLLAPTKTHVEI
Nature of the data set: Antagonist activity at NK2 (unknown origin).

The target of data set [4] is T2, Neuromedin-K receptor (Homo sapiens) (UniProt P29371).
T2 sequence (whole entry): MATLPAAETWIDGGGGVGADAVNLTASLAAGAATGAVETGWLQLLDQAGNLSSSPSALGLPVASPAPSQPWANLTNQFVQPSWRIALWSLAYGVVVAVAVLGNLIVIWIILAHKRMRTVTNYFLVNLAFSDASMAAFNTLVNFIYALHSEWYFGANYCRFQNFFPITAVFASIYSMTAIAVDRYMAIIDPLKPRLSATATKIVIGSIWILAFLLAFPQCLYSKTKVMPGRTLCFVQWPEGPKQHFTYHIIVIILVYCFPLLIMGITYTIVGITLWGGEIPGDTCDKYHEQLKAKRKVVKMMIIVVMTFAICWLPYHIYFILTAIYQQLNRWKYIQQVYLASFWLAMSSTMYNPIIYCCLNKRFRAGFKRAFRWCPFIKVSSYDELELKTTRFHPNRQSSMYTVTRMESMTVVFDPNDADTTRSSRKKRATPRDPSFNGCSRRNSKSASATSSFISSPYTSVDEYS
Nature of the data set: Antagonist activity at NK3 (unknown origin).

What is called solubility is the dissolved amount per volume that the medium holds. Read a high solubility as much dissolved substance. In data set [1], `CNC(=O)CN1CN(c2ccccc2)C2(CCN(C(=O)c3ccc4[nH]ncc4c3)CC2)C1=O` gave a solubility of 0.0014 mg/mL (≈ 3.14 µM).
In data set [1], `O=C(CN1C(=O)C2(CCN(C(=O)c3ccc4[nH]ncc4n3)CC2)c2c(Br)cccc21)NCC(F)(F)F` gave a solubility of 0.103 mg/mL (≈ 182 µM).
Take `Cn1c(-c2c[nH]c3cc(C#N)ccc23)nc2cc(C(=O)N3CCOC(c4ccccc4)C3CO)ccc21` (stereo not drawn): the fKi in data set [2] was above 1000 nM; in data set [3], above 1000 nM; in data set [4], 1.2 nM.
On to `CCn1c(-c2ccccc2-c2ccc(C)cc2C)nc2cc(C(=O)NC)ccc21`, for which the fKi in data set [2] is above 1000 nM; in data set [3] it was above 1000 nM; in data set [4], 1.2 nM.
